Measured values from ChEMBL document CHEMBL6087487, “Discovery of a 2'-α-Fluoro-2'-β-C-(fluoromethyl) Purine Nucleotide Prodrug as a Potential Oral Anti-SARS-CoV-2 Agent” (J Med Chem, 2025).
Calls of active or inactive are those of the source. The rule behind the calls is not given here.

What was measured:
[1] = test system: SARS-CoV-2; test: Antiviral activity against SARS-CoV-2 Omicron BA.5 infected in K18-hACE2 transgenic mouse assessed as protection against viral infection compound administered 2 hrs post-infection and continued till 7 days post-infection; type: functional, organism-based; conditions: Severe acute respiratory syndrome coronavirus 2, dose 20-60 mg/kg, time 166.0 hrs
[2] = Acute toxicity in Sprague-Dawley rat assessed as damage in heart at 500 to 2000 mg/kg, po measured for 14 days by H and E staining based analysis; type: organism-based; conditions: in vivo, 336 h, dose 500-2000 mg/kg, time 14 day
[3] = Acute toxicity in Sprague-Dawley rat assessed as blood biochemical change at 500 to 2000 mg/kg, po measured for 14 days; type: organism-based; conditions: in vivo, 336 h, dose 500-2000 mg/kg, time 14 day
[4] = Acute toxicity in Sprague-Dawley rat assessed as hematological change at 500 to 2000 mg/kg, po measured for 14 days; type: organism-based; conditions: in vivo, 336 h, dose 500-2000 mg/kg, time 14 day
[5] = Prodrug conversion in Sprague-Dawley rat assessed as Cmax of nucleoside triphosphate at 40 mg/kg, po measured after 0.5 to 24 hrs by LC-MS/MS analysis; type: ADME, organism-based; conditions: in vivo, time 0.5-24 hrs
[6] = Acute toxicity in Sprague-Dawley rat assessed as drug tolerance upto 2000 mg/kg, po measured for 14 days; type: organism-based; conditions: in vivo, 336 h, time 14 day
[7] = Prodrug conversion in Sprague-Dawley rat assessed as AUC (0 to infinity) of nucleoside triphosphate at 40 mg/kg, po measured after 0.5 to 24 hrs by LC-MS/MS analysis; type: ADME, organism-based; conditions: in vivo, time 0.5-24 hrs
[8] = Acute toxicity in Sprague-Dawley rat assessed as damage in spleen at 500 to 2000 mg/kg, po measured for 14 days by H and E staining based analysis; type: organism-based; conditions: in vivo, 336 h, dose 500-2000 mg/kg, time 14 day
[9] = Acute toxicity in Sprague-Dawley rat assessed as damage in kidney at 500 to 2000 mg/kg, po measured for 14 days by H and E staining based analysis; type: organism-based; conditions: in vivo, 336 h, dose 500-2000 mg/kg, time 14 day
[10] = Cytotoxicity against HPAEpiC cells incubated for 72 hrs by CCK8 assay; type: toxicity, cell-based; conditions: human
[11] = Prodrug conversion in Sprague-Dawley rat assessed as half life of nucleoside triphosphate at 40 mg/kg, po measured after 0.5 to 24 hrs by LC-MS/MS analysis; type: ADME, organism-based; conditions: in vivo, time 0.5-24 hrs
[12] = Toxicity in K18-hACE2 transgenic mouse infected with SARS-CoV-2 Omicron BA.5 assessed as body weight change at 40 to 60 mg/kg compound administered 2 hrs post-infection and continued till 7 days post-infection; type: organism-based; conditions: in vivo, 166 h, dose 40-60 mg/kg
[13] = Acute toxicity in Sprague-Dawley rat assessed as body weight change at 500 to 2000 mg/kg, po measured for 14 days; type: organism-based; conditions: in vivo, 336 h, dose 500-2000 mg/kg, time 14 day
[14] = test system: Vero C1008; test: Cytotoxicity against African green monkey Vero E6 cells at 100 uM incubated for 72 hrs by CCK8 assay; type: toxicity, cell-based; conditions: chlorocebus sabaeus, vero c1008, 72 h
[15] = biological target: Nucleoprotein (Severe acute respiratory syndrome coronavirus 2) (UniProt P0DTC9); test: Inhibition of SARS-CoV-2 N protein by Western blot analysis; conditions: dose 1-250 nM
[16] = Acute toxicity in Sprague-Dawley rat assessed as animal mortality at 500 to 2000 mg/kg, po measured for 14 days; type: organism-based; conditions: in vivo, 336 h, dose 500-2000 mg/kg, time 14 day
[17] = Acute toxicity in Sprague-Dawley rat assessed as side effects at 500 to 2000 mg/kg, po measured for 14 days; type: organism-based; conditions: in vivo, 336 h, dose 500-2000 mg/kg, time 14 day
[18] = Prodrug conversion in Sprague-Dawley rat assessed as AUClast of nucleoside triphosphate at 40 mg/kg, po measured after 0.5 to 24 hrs by LC-MS/MS analysis; type: ADME, organism-based; conditions: in vivo, time 0.5-24 hrs
[19] = Toxicity in K18-hACE2 transgenic mouse infected with SARS-CoV-2 Omicron BA.5 assessed as animal survival at 20 mg/kg compound administered 2 hrs post-infection and continued till 7 days post-infection; type: organism-based; conditions: in vivo, 166 h
[20] = Acute toxicity in Sprague-Dawley rat assessed as damage in lung at 500 to 2000 mg/kg, po measured for 14 days by H and E staining based analysis; type: organism-based; conditions: in vivo, 336 h, dose 500-2000 mg/kg, time 14 day
[21] = Acute toxicity in Sprague-Dawley rat assessed as damage in liver at 500 to 2000 mg/kg, po measured for 14 days by H and E staining based analysis; type: organism-based; conditions: in vivo, 336 h, dose 500-2000 mg/kg, time 14 day
[22] = Prodrug conversion in Sprague-Dawley rat assessed as Tmax of nucleoside triphosphate at 40 mg/kg, po measured after 0.5 to 24 hrs by LC-MS/MS analysis; type: ADME, organism-based; conditions: in vivo, time 0.5-24 hrs
[23] = Toxicity in K18-hACE2 transgenic mouse infected with SARS-CoV-2 Omicron BA.5 assessed as animal survival at 40 to 60 mg/kg compound administered 2 hrs post-infection and continued till 7 days post-infection; type: organism-based; conditions: in vivo, 166 h, dose 40-60 mg/kg
[24] = test system: Severe acute respiratory syndrome coronavirus 2; test: Inhibition of SARS-CoV-2 central replication transcription complex of nsp12/nsp7/nsp8(2) using RNA template as substrate assessed as decrease in RdRp polymerization at 3 mM pretreated for 10 mins followed by NTP addition measured after 20 mins by RNA extension assay relative to control; conditions: time 30.0 min
[25] = test system: Severe acute respiratory syndrome coronavirus 2; test: Inhibition of SARS-CoV-2 central replication transcription complex of nsp12/nsp7/nsp8(2) using RNA template as substrate assessed as decrease in RdRp polymerization at 62.5 to 1000 uM by RNA extension assay; conditions: dose 62.5-1000 µM
[26] = Cytotoxicity against African green monkey Vero E6 cells incubated for 72 hrs by CCK8 assay; type: toxicity, cell-based, Vero C1008; conditions: chlorocebus sabaeus

With `CNc1nc(N)nc2c1ncn2[C@@H]1O[C@H](CO[P@@](=O)(N[C@@H](C)C(=O)OC(C)C)Oc2ccccc2)[C@@H](O)[C@]1(F)CF.O=S(=O)(O)O` the Activity [1] was “Dose-dependent-effect”, the Activity [2] was “Non-toxic” and the Activity [3] was “Non-toxic”. The Activity [4] was “Non-toxic”, the Cmax [5] was 6.5 µg/g and the Activity [6] was “Non-toxic”. The AUC [7] was 223 µg·h/g, the Activity [8] was “Non-toxic” and the Activity [9] was “Non-toxic”. For the same compound, the CC50 at 72 h [10] was over 200 µM, the t1/2 [11] was 45.7 h and the Activity [12] was “Non-toxic”. For the same compound, the Activity [13] was “Non-toxic”, the Activity [14] was “Non-toxic” and the inhibition [15] was “Dose-dependent-effect”. The Activity [16] was “Non-toxic”, the Activity [17] was “Non-toxic” and the AUClast [18] was 66.13 µg·h/g. The Survival [19] was over 50%, the Activity [20] was “Non-toxic” and the Activity [21] was “Non-toxic”. It also gave a Tmax [22] of 2.67 h and a Survival [23] of 100%.

For `CNc1nc(N)nc2c1ncn2[C@@H]1O[C@H](COP(=O)(O)OP(=O)(O)OP(=O)(O)OP(=O)(O)O)[C@@H](O)[C@]1(F)CF`, the inhibition [24] was 100% and the inhibition [25] was “inactive”.

In the case of `CCC(CC)COC(=O)[C@H](C)N[P@](=O)(OC[C@H]1O[C@@](C#N)(c2ccc3c(N)ncnn23)[C@H](O)[C@@H]1O)Oc1ccccc1` [REMDESIVIR], the CC50 at 72 h [26] is reported as 42 µM.
